# Measured values taken from US8362031B2, “Lonidamine analogues and treatment of polycystic kidney disease” (University of Kansas, priority 2004, dated 2013).
# “Also recorded” adds a separate entry of the source.
# Tested on: rats
# Assay: Toxicology: organs sectioned and examined after dosing
# Format: in vivo
# Conditions: 25 mg/kg, two animals examined, findings per animal
# Description: In at least two of the animals in each group, the pancreas, right kidney and part of the liver, heart, spleen, and lung were removed and evaluated for toxic effects.
# The toxicology of animals receiving some of the compounds of the present invention IP and/or oral was examined. At the time of sacrifice samples of liver, pancreas, heart, lung, spleen and kidney were removed, visually inspected, and immersion fixed in Bouin's solution for a minimum of 48 hours. All organs were then sectioned and examined for evidence of necrosis, inflammation, hemorrhage, and possible tumors. The major veins in each tissue were also examined for distention, especially in the liver and pancreas, and any other abnormalities are compared to known histopathological states. In addition to the above, the heart was examined for evidence of fibrosis in the muscular walls, and to compare the thickness of the ventricular walls. The pancreas was examined mainly for calcium deposits, while the lung was checked for signs of any exudates or hemorrhage, especially in the alveolar spaces. Finally, the kidney was examined mainly for microscopic hemorrhages, tubular necrosis or alterations in the glomeruli in the cortex.
# In this example, the effects of RC-MC-30 were compared with those of lonidamine in sexually mature rats. As discussed above, each of the rats (8 total) received a single injection and were sacrificed five days after injection and examined.
row,SMILES,"Toxicology: liver, lung, pancreas, spleen, heart and kidney (histology)"
1,"O=C(O)/C=C/c1nn(Cc2ccc(Cl)cc2Cl)c2cc(F)ccc12 [JWS-1-170, 3-[1-(2,4-dichlorobenzyl)-6-fluoro-1H-indazol-3-yl]-acrylic acid]","liver, lung, pancreas, spleen, heart and kidney that appeared within normal limits"
2,"COC(=O)c1nn(Cc2ccc(Cl)cc2Cl)c2ccc(OC)nc12 [JWS-1-142, 1-(2,4-dichlorobenzyl)-5-methoxy-1H-pyrazolo[4,3-b]pyridine-3-carboxylic acid methyl ester]","liver, lung, pancreas, spleen, heart and kidney all appeared within normal limits"
3,"COc1ccc2c(n1)c(C(=O)O)nn2Cc1ccc(Cl)cc1Cl [JWS-1-144, 1-(2,4-dichlorobenzyl)-5-methoxy-1H-pyrazolo[4,3-b]pyridine-3-carboxylic acid]","liver, lung, pancreas, spleen, heart and kidney that appeared within normal limits"
4,"CCCOC(=O)c1nn(Cc2ccc(Cl)cc2Cl)c2ccccc12 [RC-MC-158, 1-[(2,4-dichlorobenzyl)-1H-indazole]-3-carboxylic acid propyl ester]","liver, lung, pancreas, spleen, heart and kidney all appeared within normal limits; also recorded: The lung did have small scattered hemorrhagic areas, mainly around the alveoli and terminal bronchioles"

# Same assay, conditions: 200 mg/kg, two animals examined, findings per animal
row,SMILES,"Toxicology: liver, lung, pancreas, spleen, heart and kidney (histology)"
1,"O=C(O)/C=C/c1nn(Cc2ccc(Cl)cc2Cl)c2cc(F)ccc12 [JWS-1-170, 3-[1-(2,4-dichlorobenzyl)-6-fluoro-1H-indazol-3-yl]-acrylic acid]","liver, lung, pancreas, spleen, heart and kidney all appeared within normal limits; also recorded: The liver did have moderate patches (5-10 cells in diameter) of necrosis mainly in the periportal areas"
2,"COC(=O)c1nn(Cc2ccc(Cl)cc2Cl)c2ccc(OC)nc12 [JWS-1-142, 1-(2,4-dichlorobenzyl)-5-methoxy-1H-pyrazolo[4,3-b]pyridine-3-carboxylic acid methyl ester]","The liver contained a small, confined cluster of lymphocytes in the parenchyma; also recorded: liver, lung, pancreas, spleen, heart and kidney all appeared within normal limits"
3,"CCCOC(=O)c1nn(Cc2ccc(Cl)cc2Cl)c2ccccc12 [RC-MC-158, 1-[(2,4-dichlorobenzyl)-1H-indazole]-3-carboxylic acid propyl ester]","The lung had multiple, large hemorrhagic areas, mainly in the alveolar regions with some hemosiderin deposits; also recorded: The lung contained multiple large hemorrhagic areas, mainly in the alveoli; also recorded: The liver contained small, scattered necrotic areas, generally around the portal veins"

# Tested on: Male Long Evans rats
# Assay: In vivo antispermatogenic testing in Long Evans rats
# Conditions: 25 mg/kg single i.p. injection; […]
row,SMILES,Mortality (25 mg/kg)
1,"O=C(O)/C=C/c1nn(Cc2ccc(Cl)cc2Cl)c2cc(F)ccc12 [JWS-1-170, 3-[1-(2,4-dichlorobenzyl)-6-fluoro-1H-indazol-3-yl]-acrylic acid]",0/5
2,"COC(=O)c1nn(Cc2ccc(Cl)cc2Cl)c2ccc(OC)nc12 [JWS-1-142, 1-(2,4-dichlorobenzyl)-5-methoxy-1H-pyrazolo[4,3-b]pyridine-3-carboxylic acid methyl ester]",0/5
3,"COc1ccc2c(n1)c(C(=O)O)nn2Cc1ccc(Cl)cc1Cl [JWS-1-144, 1-(2,4-dichlorobenzyl)-5-methoxy-1H-pyrazolo[4,3-b]pyridine-3-carboxylic acid]",0/5
4,"CCCOC(=O)c1nn(Cc2ccc(Cl)cc2Cl)c2ccccc12 [RC-MC-158, 1-[(2,4-dichlorobenzyl)-1H-indazole]-3-carboxylic acid propyl ester]",0/5

# Same assay, conditions: 25 mg/kg single i.p. injection; animals responding out of animals surviving; five days following injection
row,SMILES,Response 25 mg/kg
1,"O=C(O)/C=C/c1nn(Cc2ccc(Cl)cc2Cl)c2cc(F)ccc12 [JWS-1-170, 3-[1-(2,4-dichlorobenzyl)-6-fluoro-1H-indazol-3-yl]-acrylic acid]",3/5
2,"COC(=O)c1nn(Cc2ccc(Cl)cc2Cl)c2ccc(OC)nc12 [JWS-1-142, 1-(2,4-dichlorobenzyl)-5-methoxy-1H-pyrazolo[4,3-b]pyridine-3-carboxylic acid methyl ester]",0/5
3,"COc1ccc2c(n1)c(C(=O)O)nn2Cc1ccc(Cl)cc1Cl [JWS-1-144, 1-(2,4-dichlorobenzyl)-5-methoxy-1H-pyrazolo[4,3-b]pyridine-3-carboxylic acid]",0/5
4,"CCCOC(=O)c1nn(Cc2ccc(Cl)cc2Cl)c2ccccc12 [RC-MC-158, 1-[(2,4-dichlorobenzyl)-1H-indazole]-3-carboxylic acid propyl ester]",2/5

# Same assay, conditions: 200 mg/kg single i.p. injection; […]
row,SMILES,Mortality (200 mg/kg)
1,"O=C(O)/C=C/c1nn(Cc2ccc(Cl)cc2Cl)c2cc(F)ccc12 [JWS-1-170, 3-[1-(2,4-dichlorobenzyl)-6-fluoro-1H-indazol-3-yl]-acrylic acid]",0/5
2,"COC(=O)c1nn(Cc2ccc(Cl)cc2Cl)c2ccc(OC)nc12 [JWS-1-142, 1-(2,4-dichlorobenzyl)-5-methoxy-1H-pyrazolo[4,3-b]pyridine-3-carboxylic acid methyl ester]",0/5
3,"CCCOC(=O)c1nn(Cc2ccc(Cl)cc2Cl)c2ccccc12 [RC-MC-158, 1-[(2,4-dichlorobenzyl)-1H-indazole]-3-carboxylic acid propyl ester]",0/5

# Same assay, conditions: 200 mg/kg single i.p. injection; animals responding out of animals surviving; five days following injection
row,SMILES,Response 200 mg/kg
1,"O=C(O)/C=C/c1nn(Cc2ccc(Cl)cc2Cl)c2cc(F)ccc12 [JWS-1-170, 3-[1-(2,4-dichlorobenzyl)-6-fluoro-1H-indazol-3-yl]-acrylic acid]",3/3
2,"COC(=O)c1nn(Cc2ccc(Cl)cc2Cl)c2ccc(OC)nc12 [JWS-1-142, 1-(2,4-dichlorobenzyl)-5-methoxy-1H-pyrazolo[4,3-b]pyridine-3-carboxylic acid methyl ester]",0/5
3,"CCCOC(=O)c1nn(Cc2ccc(Cl)cc2Cl)c2ccccc12 [RC-MC-158, 1-[(2,4-dichlorobenzyl)-1H-indazole]-3-carboxylic acid propyl ester]",5/5

# Tested on: Salmonella Typhimurium TA 100
# Assay: Ames test for mutagenicity (plate assay, colony count)
# Conditions: (+)S9 mix, 0.1 mg/pl., 48 hours at 37° C.
row,SMILES,Ames test (+)S9 0.1 mg/pl.
1,"O=C(O)/C=C/c1nn(Cc2ccc(Cl)cc2Cl)c2cc(F)ccc12 [JWS-1-170, 3-[1-(2,4-dichlorobenzyl)-6-fluoro-1H-indazol-3-yl]-acrylic acid]",Pass
2,"COC(=O)c1nn(Cc2ccc(Cl)cc2Cl)c2ccc(OC)nc12 [JWS-1-142, 1-(2,4-dichlorobenzyl)-5-methoxy-1H-pyrazolo[4,3-b]pyridine-3-carboxylic acid methyl ester]",Pass
3,"COc1ccc2c(n1)c(C(=O)O)nn2Cc1ccc(Cl)cc1Cl [JWS-1-144, 1-(2,4-dichlorobenzyl)-5-methoxy-1H-pyrazolo[4,3-b]pyridine-3-carboxylic acid]",Pass
4,"CCCOC(=O)c1nn(Cc2ccc(Cl)cc2Cl)c2ccccc12 [RC-MC-158, 1-[(2,4-dichlorobenzyl)-1H-indazole]-3-carboxylic acid propyl ester]",Mar-

# Same assay, conditions: (+)S9 mix, 1 mg/pl., 48 hours at 37° C.
row,SMILES,Ames test (+)S9 1 mg/pl.
1,"O=C(O)/C=C/c1nn(Cc2ccc(Cl)cc2Cl)c2cc(F)ccc12 [JWS-1-170, 3-[1-(2,4-dichlorobenzyl)-6-fluoro-1H-indazol-3-yl]-acrylic acid]",Pass
2,"COC(=O)c1nn(Cc2ccc(Cl)cc2Cl)c2ccc(OC)nc12 [JWS-1-142, 1-(2,4-dichlorobenzyl)-5-methoxy-1H-pyrazolo[4,3-b]pyridine-3-carboxylic acid methyl ester]",Pass
3,"COc1ccc2c(n1)c(C(=O)O)nn2Cc1ccc(Cl)cc1Cl [JWS-1-144, 1-(2,4-dichlorobenzyl)-5-methoxy-1H-pyrazolo[4,3-b]pyridine-3-carboxylic acid]",Pass
4,"CCCOC(=O)c1nn(Cc2ccc(Cl)cc2Cl)c2ccccc12 [RC-MC-158, 1-[(2,4-dichlorobenzyl)-1H-indazole]-3-carboxylic acid propyl ester]",Pass

# Same assay, conditions: (+)S9 mix, 10 mg/pl., 48 hours at 37° C.
row,SMILES,Ames test (+)S9 10 mg/pl.
1,"O=C(O)/C=C/c1nn(Cc2ccc(Cl)cc2Cl)c2cc(F)ccc12 [JWS-1-170, 3-[1-(2,4-dichlorobenzyl)-6-fluoro-1H-indazol-3-yl]-acrylic acid]",Pass
2,"COC(=O)c1nn(Cc2ccc(Cl)cc2Cl)c2ccc(OC)nc12 [JWS-1-142, 1-(2,4-dichlorobenzyl)-5-methoxy-1H-pyrazolo[4,3-b]pyridine-3-carboxylic acid methyl ester]",Pass
3,"COc1ccc2c(n1)c(C(=O)O)nn2Cc1ccc(Cl)cc1Cl [JWS-1-144, 1-(2,4-dichlorobenzyl)-5-methoxy-1H-pyrazolo[4,3-b]pyridine-3-carboxylic acid]",Pass
4,"CCCOC(=O)c1nn(Cc2ccc(Cl)cc2Cl)c2ccccc12 [RC-MC-158, 1-[(2,4-dichlorobenzyl)-1H-indazole]-3-carboxylic acid propyl ester]",Pass

# Same assay, conditions: (−)S9 mix, 0.1 mg/pl., 48 hours at 37° C.
row,SMILES,Ames test (−)S9 0.1 mg/pl.
1,"O=C(O)/C=C/c1nn(Cc2ccc(Cl)cc2Cl)c2cc(F)ccc12 [JWS-1-170, 3-[1-(2,4-dichlorobenzyl)-6-fluoro-1H-indazol-3-yl]-acrylic acid]",Pass
2,"COC(=O)c1nn(Cc2ccc(Cl)cc2Cl)c2ccc(OC)nc12 [JWS-1-142, 1-(2,4-dichlorobenzyl)-5-methoxy-1H-pyrazolo[4,3-b]pyridine-3-carboxylic acid methyl ester]",Pass
3,"COc1ccc2c(n1)c(C(=O)O)nn2Cc1ccc(Cl)cc1Cl [JWS-1-144, 1-(2,4-dichlorobenzyl)-5-methoxy-1H-pyrazolo[4,3-b]pyridine-3-carboxylic acid]",Pass
4,"CCCOC(=O)c1nn(Cc2ccc(Cl)cc2Cl)c2ccccc12 [RC-MC-158, 1-[(2,4-dichlorobenzyl)-1H-indazole]-3-carboxylic acid propyl ester]",Pass

# Same assay, conditions: (−)S9 mix, 1 mg/pl., 48 hours at 37° C.
row,SMILES,Ames test (−)S9 1 mg/pl.
1,"O=C(O)/C=C/c1nn(Cc2ccc(Cl)cc2Cl)c2cc(F)ccc12 [JWS-1-170, 3-[1-(2,4-dichlorobenzyl)-6-fluoro-1H-indazol-3-yl]-acrylic acid]",Pass
2,"COC(=O)c1nn(Cc2ccc(Cl)cc2Cl)c2ccc(OC)nc12 [JWS-1-142, 1-(2,4-dichlorobenzyl)-5-methoxy-1H-pyrazolo[4,3-b]pyridine-3-carboxylic acid methyl ester]",Pass
3,"COc1ccc2c(n1)c(C(=O)O)nn2Cc1ccc(Cl)cc1Cl [JWS-1-144, 1-(2,4-dichlorobenzyl)-5-methoxy-1H-pyrazolo[4,3-b]pyridine-3-carboxylic acid]",Pass
4,"CCCOC(=O)c1nn(Cc2ccc(Cl)cc2Cl)c2ccccc12 [RC-MC-158, 1-[(2,4-dichlorobenzyl)-1H-indazole]-3-carboxylic acid propyl ester]",Pass

# Same assay, conditions: (−)S9 mix, 10 mg/pl., 48 hours at 37° C.
row,SMILES,Ames test (−)S9 10 mg/pl.
1,"O=C(O)/C=C/c1nn(Cc2ccc(Cl)cc2Cl)c2cc(F)ccc12 [JWS-1-170, 3-[1-(2,4-dichlorobenzyl)-6-fluoro-1H-indazol-3-yl]-acrylic acid]",Pass
2,"COC(=O)c1nn(Cc2ccc(Cl)cc2Cl)c2ccc(OC)nc12 [JWS-1-142, 1-(2,4-dichlorobenzyl)-5-methoxy-1H-pyrazolo[4,3-b]pyridine-3-carboxylic acid methyl ester]",Pass
3,"COc1ccc2c(n1)c(C(=O)O)nn2Cc1ccc(Cl)cc1Cl [JWS-1-144, 1-(2,4-dichlorobenzyl)-5-methoxy-1H-pyrazolo[4,3-b]pyridine-3-carboxylic acid]",Pass
4,"CCCOC(=O)c1nn(Cc2ccc(Cl)cc2Cl)c2ccccc12 [RC-MC-158, 1-[(2,4-dichlorobenzyl)-1H-indazole]-3-carboxylic acid propyl ester]",Pass
